# In ChEMBL document CHEMBL1153924, “Synthesis and antibacterial activity of 4'',11-di-O-arylalkylcarbamoyl azithromycin derivatives” (2009):
# Legend:
# Type in all cases: functional
# [1] = system: Streptococcus pneumoniae; experiment: Antibacterial activity against erythromycin-resistant Streptococcus pneumoniae A22072 expressing mef gene by broth microdilution method
# [2] = system: Streptococcus pneumoniae; experiment: Antibacterial activity against erythromycin-resistant Streptococcus pneumoniae B1 expressing erm gene by broth microdilution method
# [3] = system: Streptococcus pneumoniae; experiment: Antibacterial activity against erythromycin-resistant Streptococcus pneumoniae AB11 expressing erm and mef genes by broth microdilution method
# [4] = system: Streptococcus pneumoniae; experiment: Antibacterial activity against erythromycin-susceptible Streptococcus pneumoniae ATCC 49619 by broth microdilution method
SMILES,MIC [1],MIC [2],MIC [3],MIC [4]
CC[C@H]1OC(=O)[C@H](C)[C@@H](O[C@H]2C[C@@](C)(OC)[C@@H](OC(=O)NCc3ccc(F)cc3)[C@H](C)O2)[C@H](C)[C@@H](O[C@@H]2O[C@H](C)C[C@H](N(C)C)[C@H]2O)[C@](C)(O)C[C@@H](C)CN(C)[C@H](C)[C@@H](OC(=O)NCCc2ccccc2)[C@]1(C)O,0.06 µg/mL,0.25 µg/mL,32 µg/mL,< 0.03 µg/mL
CCCCCNC(=O)O[C@@H]1[C@@H](C)N(C)C[C@H](C)C[C@@](C)(O)[C@H](O[C@@H]2O[C@H](C)C[C@H](N(C)C)[C@H]2O)[C@@H](C)[C@H](O[C@H]2C[C@@](C)(OC)[C@@H](OC(=O)NCCc3ccccc3Cl)[C@H](C)O2)[C@@H](C)C(=O)O[C@H](CC)[C@@]1(C)O,0.5 µg/mL,0.5 µg/mL,16 µg/mL,< 0.03 µg/mL
CCCCNC(=O)O[C@@H]1[C@@H](C)N(C)C[C@H](C)C[C@@](C)(O)[C@H](O[C@@H]2O[C@H](C)C[C@H](N(C)C)[C@H]2O)[C@@H](C)[C@H](O[C@H]2C[C@@](C)(OC)[C@@H](OC(=O)NCCc3ccc(O)cc3)[C@H](C)O2)[C@@H](C)C(=O)O[C@H](CC)[C@@]1(C)O,1 µg/mL,0.25 µg/mL,128 µg/mL,< 0.03 µg/mL
CC[C@H]1OC(=O)[C@H](C)[C@@H](O[C@H]2C[C@@](C)(OC)[C@@H](OC(=O)NCCc3ccccc3Cl)[C@H](C)O2)[C@H](C)[C@@H](O[C@@H]2O[C@H](C)C[C@H](N(C)C)[C@H]2O)[C@](C)(O)C[C@@H](C)CN(C)[C@H](C)[C@@H](OC(=O)NCc2ccc(F)cc2)[C@]1(C)O,0.25 µg/mL,0.25 µg/mL,4 µg/mL,0.06 µg/mL
CCCCCNC(=O)O[C@@H]1[C@@H](C)N(C)C[C@H](C)C[C@@](C)(O)[C@H](O[C@@H]2O[C@H](C)C[C@H](N(C)C)[C@H]2O)[C@@H](C)[C@H](O[C@H]2C[C@@](C)(OC)[C@@H](OC(=O)NCc3ccc(OC)cc3)[C@H](C)O2)[C@@H](C)C(=O)O[C@H](CC)[C@@]1(C)O,1 µg/mL,0.5 µg/mL,32 µg/mL,0.06 µg/mL
CC[C@H]1OC(=O)[C@H](C)[C@@H](O[C@H]2C[C@@](C)(OC)[C@@H](OC(=O)NCc3ccc(OC)cc3)[C@H](C)O2)[C@H](C)[C@@H](O[C@@H]2O[C@H](C)C[C@H](N(C)C)[C@H]2O)[C@](C)(O)C[C@@H](C)CN(C)[C@H](C)[C@H]2OC(=O)O[C@@]21C,0.25 µg/mL,8 µg/mL,16 µg/mL,< 0.03 µg/mL
CC[C@H]1OC(=O)[C@H](C)[C@@H](O[C@H]2C[C@@](C)(OC)[C@@H](OC(=O)NCc3ccc(F)cc3)[C@H](C)O2)[C@H](C)[C@@H](O[C@@H]2O[C@H](C)C[C@H](N(C)C)[C@H]2O)[C@](C)(O)C[C@@H](C)CN(C)[C@H](C)[C@@H](OC(=O)NCCc2ccccc2Cl)[C@]1(C)O,0.12 µg/mL,0.25 µg/mL,2 µg/mL,< 0.03 µg/mL
CC[C@H]1OC(=O)[C@H](C)[C@@H](O[C@H]2C[C@@](C)(OC)[C@@H](OC(=O)NCCc3ccc(O)cc3)[C@H](C)O2)[C@H](C)[C@@H](O[C@@H]2O[C@H](C)C[C@H](N(C)C)[C@H]2O)[C@](C)(O)C[C@@H](C)CN(C)[C@H](C)[C@@H](OC(=O)NCc2ccccc2)[C@]1(C)O,0.12 µg/mL,0.25 µg/mL,128 µg/mL,< 0.03 µg/mL
CC[C@H]1OC(=O)[C@H](C)[C@@H](O[C@H]2C[C@@](C)(OC)[C@@H](OC(=O)NCCc3ccccc3Cl)[C@H](C)O2)[C@H](C)[C@@H](O[C@@H]2O[C@H](C)C[C@H](N(C)C)[C@H]2O)[C@](C)(O)C[C@@H](C)CN(C)[C@H](C)[C@H]2OC(=O)O[C@@]21C,0.25 µg/mL,8 µg/mL,2 µg/mL,< 0.03 µg/mL
CC[C@H]1OC(=O)[C@H](C)[C@@H](O[C@H]2C[C@@](C)(OC)[C@@H](OC(=O)NCCc3ccccc3Cl)[C@H](C)O2)[C@H](C)[C@@H](O[C@@H]2O[C@H](C)C[C@H](N(C)C)[C@H]2O)[C@](C)(O)C[C@@H](C)CN(C)[C@H](C)[C@@H](OC(=O)NCCc2ccc(O)cc2)[C@]1(C)O,0.06 µg/mL,0.25 µg/mL,16 µg/mL,< 0.03 µg/mL
CC[C@H]1OC(=O)[C@H](C)[C@@H](O[C@H]2C[C@@](C)(OC)[C@@H](OC(=O)NCCc3ccccc3Cl)[C@H](C)O2)[C@H](C)[C@@H](O[C@@H]2O[C@H](C)C[C@H](N(C)C)[C@H]2O)[C@](C)(O)C[C@@H](C)CN(C)[C@H](C)[C@@H](OC(=O)NCc2ccccc2)[C@]1(C)O,0.25 µg/mL,0.25 µg/mL,4 µg/mL,< 0.03 µg/mL
CC[C@H]1OC(=O)[C@H](C)[C@@H](O[C@H]2C[C@@](C)(OC)[C@@H](O)[C@H](C)O2)[C@H](C)[C@@H](O[C@@H]2O[C@H](C)C[C@H](N(C)C)[C@H]2O)[C@](C)(O)C[C@@H](C)CN(C)[C@H](C)[C@@H](O)[C@]1(C)O [AZITHROMYCIN],4 µg/mL,128 µg/mL,256 µg/mL,< 0.03 µg/mL
CC[C@H]1OC(=O)[C@H](C)[C@@H](O[C@H]2C[C@@](C)(OC)[C@@H](OC(=O)NCc3ccc(F)cc3)[C@H](C)O2)[C@H](C)[C@@H](O[C@@H]2O[C@H](C)C[C@H](N(C)C)[C@H]2O)[C@](C)(O)C[C@@H](C)CN(C)[C@H](C)[C@H]2OC(=O)O[C@@]21C,0.06 µg/mL,8 µg/mL,4 µg/mL,< 0.03 µg/mL
CCCCNC(=O)O[C@@H]1[C@@H](C)N(C)C[C@H](C)C[C@@](C)(O)[C@H](O[C@@H]2O[C@H](C)C[C@H](N(C)C)[C@H]2O)[C@@H](C)[C@H](O[C@H]2C[C@@](C)(OC)[C@@H](OC(=O)NCc3ccc(OC)cc3)[C@H](C)O2)[C@@H](C)C(=O)O[C@H](CC)[C@@]1(C)O,1 µg/mL,0.5 µg/mL,128 µg/mL,0.06 µg/mL
CC[C@H]1OC(=O)[C@H](C)[C@@H](O[C@H]2C[C@@](C)(OC)[C@@H](OC(=O)NCCc3ccc(O)cc3)[C@H](C)O2)[C@H](C)[C@@H](O[C@@H]2O[C@H](C)C[C@H](N(C)C)[C@H]2O)[C@](C)(O)C[C@@H](C)CN(C)[C@H](C)[C@@H](OC(=O)NCCc2ccccc2Cl)[C@]1(C)O,0.25 µg/mL,0.25 µg/mL,16 µg/mL,< 0.03 µg/mL
CC[C@H]1OC(=O)[C@H](C)[C@@H](O[C@H]2C[C@@](C)(OC)[C@@H](O)[C@H](C)O2)[C@H](C)[C@@H](O[C@@H]2O[C@H](C)C[C@H](N(C)C)[C@H]2O)[C@](C)(OC)C[C@@H](C)C(=O)[C@H](C)[C@@H](O)[C@]1(C)O [CLARITHROMYCIN],4 µg/mL,64 µg/mL,128 µg/mL,< 0.03 µg/mL
CC[C@H]1OC(=O)[C@H](C)[C@@H](O[C@H]2C[C@@](C)(OC)[C@@H](OC(=O)NCCc3ccc(O)cc3)[C@H](C)O2)[C@H](C)[C@@H](O[C@@H]2O[C@H](C)C[C@H](N(C)C)[C@H]2O)[C@](C)(O)C[C@@H](C)CN(C)[C@H](C)[C@H]2OC(=O)O[C@@]21C,1 µg/mL,8 µg/mL,4 µg/mL,< 0.03 µg/mL
